Data as given in EP0039646A1, “1,4-Benzodioxines, processes for their preparation and their use in therapy” (RIOM LABORATOIRES- C.E.R.M. (Société Anonyme), priority 1980, dated 1981).

Columns and labels:
[1] = system: rat spontanément hypertendu anesthésié; experiment: Antihypertensive effect in anaesthetised spontaneously hypertensive rats, carotid arterial pressure after i.v. injection; type: in vivo
Method: Les essais in vivo ont été effectués chez des rats mâles (S.H.R. - I.F.F.A.) conformément au protocole résumé ci-après :
Après anesthésie au pentobarbital, on a disposé un cathéter au niveau de l'artère carotide pour enregistrer la pression artérielle, et un cathéter au niveau d'une veine jugulaire pour permettre les injections des composés de l'invention mis en solution dans 0,5 ml de PEG 200 (polyéthylène glycol). La durée de l'injection était de 1 minute.

[2] = system: Récepteurs adrénergiques α; experiment: Interference with the contraction of isolated rat vas deferens caused by cumulative doses of noradrenaline
From the text: (§1) L'activité pharmacologique des composés de l'invention a été révélée par recherche d'une interférence avec les récepteurs adrénergiques β1, β2 et α in vitro, et confirmée in vivo par les effets antihypertenseurs observés après administration desdits composés chez le rat spontanément hypertendu anesthésié.
(§2) Les essais effectués in vitro correspondent aux protocoles résumés ci-après : • - Récepteurs adrénergiques β1 : on recherche l'antagonisme de l'effet inotrope positif de l'isopré- naline sur les récepteurs β1 de l'oreillette gauche de cobaye stimulée électriquement. • - Récepteurs adrénergiques 6 2 : on recherche l'antagonisme des effets bronchodilatateurs de l'iso- prénaline sur les récepteurs β2 du muscle trachéal de cobaye. • - Récepteurs adrénergiques α : on étudie l'interférence des composés de l'invention sur la contraction du vas déferens isolé du rat, provoquée par des doses cumulatives de noradrénaline.
(§3) Les résultats exprimés par les paramètres usuels de pharmacologie moléculaire, selon les critères utilisés par Van Rossum [Arch. Int.

récepteurs β2 = molecular target: T1, récepteurs β2 (Cavia porcellus, UniProt Q8K4Z4); experiment: Antagonism of the bronchodilator effects of isoprenaline on guinea pig tracheal muscle; design: species or system cobaye
T1 construct: sur les récepteurs β2 du muscle trachéal de cobaye; from tissue; host or cells: guinea pig tracheal muscle
T1 sequence (Q8K4Z4 whole entry): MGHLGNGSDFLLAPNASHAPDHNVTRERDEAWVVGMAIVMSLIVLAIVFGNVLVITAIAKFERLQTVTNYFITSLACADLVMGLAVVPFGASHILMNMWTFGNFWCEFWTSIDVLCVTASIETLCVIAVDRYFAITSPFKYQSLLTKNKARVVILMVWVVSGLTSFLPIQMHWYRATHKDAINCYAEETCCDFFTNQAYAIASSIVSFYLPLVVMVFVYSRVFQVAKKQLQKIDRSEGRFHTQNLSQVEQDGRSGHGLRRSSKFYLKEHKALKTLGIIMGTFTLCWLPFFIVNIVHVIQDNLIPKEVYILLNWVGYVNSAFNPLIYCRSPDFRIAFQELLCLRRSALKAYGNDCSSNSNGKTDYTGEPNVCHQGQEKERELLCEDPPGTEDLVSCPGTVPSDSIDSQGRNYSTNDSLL
From the text: as §1, §2, §3

récepteurs β1 = molecular target: T2, récepteurs β1 (Cavia porcellus, UniProt H0W3H1); experiment: Antagonism of the positive inotropic effect of isoprenaline on electrically stimulated guinea pig left atrium; design: species or system cobaye
T2 construct: sur les récepteurs β1 de l'oreillette gauche de cobaye stimulée électriquement; from tissue; host or cells: isolated guinea pig left atrium, electrically stimulated
T2 sequence (H0W3H1 1-470): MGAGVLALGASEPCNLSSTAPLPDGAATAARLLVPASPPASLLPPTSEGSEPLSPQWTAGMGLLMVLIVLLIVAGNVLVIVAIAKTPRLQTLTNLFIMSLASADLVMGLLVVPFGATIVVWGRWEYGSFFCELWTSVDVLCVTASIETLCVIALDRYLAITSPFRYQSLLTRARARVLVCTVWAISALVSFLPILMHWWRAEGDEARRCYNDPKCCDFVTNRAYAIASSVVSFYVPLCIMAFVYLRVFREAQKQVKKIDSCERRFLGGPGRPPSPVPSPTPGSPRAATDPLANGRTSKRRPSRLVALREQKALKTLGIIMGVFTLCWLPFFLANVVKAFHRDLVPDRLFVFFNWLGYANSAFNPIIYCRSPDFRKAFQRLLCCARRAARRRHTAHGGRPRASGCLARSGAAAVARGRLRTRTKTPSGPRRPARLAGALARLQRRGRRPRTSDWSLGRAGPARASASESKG
From the text: as §1, §2, §3

[3] = Acute oral toxicity in mice; conditions: mouse, in vivo, voie orale, souris, read-out: toxicité aiguë
Method: Ces résultats montrent en particulier le grand intérêt du composé n° 2 qui présente un antagonisme très sélectif du type dualiste vis-à-vis des récepteurs β adrénergiques et fait preuve d'une remarquable activité in vivo chez le rat spontanément hypertendu anesthésié. Il a d'autre part été possible d'évaluer à 120 mg.kg-^1 la toxicité aiguë du composé n° 2 par voie orale chez la souris.

Row | SMILES | durée de l'effet antihypertenseur ([1]; dose 20 mg.kg^-1, jugular vein injection in PEG 200, male SHR rats under pentobarbital) [min] | Récepteurs α ([2]; noradrenaline) | Récepteurs β2 (récepteurs β2) | action sur les récepteurs β1 (récepteurs β1; 10^-4 M/1) | durée de l'effet antihypertenseur ([1]; dose 2,5 mg.kg^-1, jugular vein injection in PEG 200, male SHR rats under pentobarbital) [min] | potentialisation des effets de la noradrénaline ([2]; dose 10^-4 M/1) [%] | pD'2 (récepteurs β1; Récepteurs β1, guinea pig left atrium, isoprenaline, Van Rossum criteria) | Kb (récepteurs β1; Récepteurs β1, guinea pig left atrium, isoprenaline, Van Rossum criteria, read-out: pA2 (converted)) [nM] | LD50 [3] [mg/kg]
1 | OC(CN1CCN(c2cccc(C(F)(F)F)c2)CC1)C1=COc2ccccc2O1 (stereo not shown) [exemple 1, 2-méthanoloα-[4-(3-trifluoromethylphenyl)piperazinyl-1] methyl benzo (1,4) dioxine] | 20 | inactif | inactif | très faiblement compétitive |  |  |  |  | 
2 | COc1ccccc1N1CCN(CC(O)C2=COc3ccccc3O2)CC1 (stereo not shown) [exemple 2, 2-méthanolα-[4-(2-methoxyphenyl)piperazinyl-1] methyl benzo (1,4) dioxine] |  |  | inactif |  | > 45 | 180 | 4,84 | 912 | 120
